# Entries after “also recorded” stand apart in the source; their conditions may differ.
# Key:
# PH-HFpEF patients [1] = experiment: HELP Study double-blind phase: weekly 24-hour infusions for 5 weeks vs placebo, assessment at Week 6; type: in vivo, human; conditions: for mean pulmonary arterial pressure (mPAP) / right atrial pressure (RAP) / six-minute walk test distance: Week 6, compared with placebo; for pulmonary capillary wedge pressure (PCWP): baseline vs Week 6, compared with placebo
# Method: Study drug is administered via i.v. infusion over 24 hours weekly through Week 5 via a PICC line. Infusions (Week 2-5) are done in the subject's home by a study nurse. Patients return to the study site for a visit between the Week 3 and Week 4 infusions for assessment of subject safety/response and need for dose adjustment. Each subject is to return on Week 6 for assessment of efficacy and safety on study drug. A right heart catheter will be inserted to obtain hemodynamic measurements at rest and exercise at baseline, the following day after the lead-in 24-hour infusion, and during Week 6.
# During the Lead-in phase of the study, a sufficient number of subjects are enrolled and receive levosimendan to identify a total of 36 ‘responders.’ The levosimendan ‘responders’ are randomized 1:1, levosimendan or placebo, for the double-blind phase of the study.
# During the Double-blind phase, study drug concentrated solution (2.5 mg/mL), levosimendan or placebo, is mixed with diluent and administered via a PICC line as weekly infusions at 0.075 μg/kg/min for 24 hours. Patients undergo a dose escalation at Week 4 and 5 (0.10 μg/kg/min for 24 hours) unless there has been a meaningful change in blood pressure or heart rate. Infusion rates may be reduced to 0.05 μg/kg/min if the higher dose is not well-tolerated at any time during the initial 5 weeks.
# Visits at Weeks 2, 3, 4, and 5 are performed within +/−48 hours of the scheduled visit. Visits for Weeks 2-5 are calculated based on the date of the Lead-in infusion. These visits are performed at the subject's home with the aid of the home health care nurse. The home health care nurse remains with the patient for the first 2-3 hours of the infusion to ensure patient safety. The home health care nurse visits the patient again at 24 hours to stop the infusion and assess the patient's status. During this visit, the following procedures are performed: Record any changes in procedures, prescription and non-prescription drugs, vitamins, and dietary or herbal supplements; measure vital signs prior to starting the infusion, after the first 2 hours (+/−30 min), and after 24 hours (+/−30 min); assess adverse events and study drug administration. At Week 5, all patients are given a new cardiac monitoring sensor to wear on their chest to measure cardiac rhythm, as was done during Screening. The patch is applied prior to (<1 hour) the 24-hour infusion, remain monitoring the patient for a minimum of 72 hours and returned to the investigational site at the Week 6 visit.
# Visits at Week 6 should be performed 3-6 days following completion of the Week 5 infusion. During this visit, the following procedures are performed: record any changes in procedures, prescription and non-prescription drugs, vitamins, and dietary or herbal supplements; measure vital signs (BP, PR, respiratory rate, temperature); hematology and clinical chemistry blood samples; conduct 12-lead ECG; echocardiogram within +/−72 hours of the Week 6 visit; right heart catheterization at rest and with exercise; QOL assessment; Child-Pugh Class, NYHA Functional Class, assess adverse events, 6 minute walk test; and pharmacokinetic sampling (sample to be taken prior to enrollment in Open-Label phase.
# The 6-minute walk test (6MWT) is performed at approximately the same time of day at each study visit after the Baseline Visit and ideally, one of the first assessments to be performed. The ECHO and subject questionnaire are performed after the 6MWT has been completed. The 6MWT is performed using the methods described in the American Thoracic Society (ATS) Statement: Guidelines for the Six-Minute Walk Test. The test is performed at approximately the same time of day when assessed and by the same evaluator whenever possible.
# PH-HFpEF patients [2] = experiment: Open-label extension (rollover) study: six-minute walk distance and Likert quality of life; type: in vivo, human
# Method: This is an open-label rollover study to allow patients to continue levosimendan treatment if the patient has tolerated treatment in the HELP clinical study seen in Example 1.
# Study drug concentrated solution (2.5 mg/mL), levosimendan, is mixed with diluent and administered as weekly infusions at 0.075 μg/kg/min for 24 hrs. Patients may have a dose escalation at Weeks 3 at a rate of 0.10 μg/kg/min for 24 hours, unless there has been a meaningful change in blood pressure or heart rate or other prohibitive rationale.
# Visits at Weeks 3, 6, 12, 24, 48 and Follow-Up Visit (at termination) are performed within 72 hours of the scheduled weekly visit. These visits are performed at the investigator's office. The Follow-Up Visit (at termination) is calculated as the earlier of two years from the subject's date of entry into this extension study or as soon as possible after study discontinuation, but within 1 week. During this visit, the following procedures are performed: Vital signs; body weight (Week 3 only); 6MWT; Quality of Life assessment; NYHA Functional Class; Physician Assessment; assess adverse events, and concomitant medications and/or procedures.
# [3] = chronic (weekly for 5 weeks) administration, week 6
# [4] = weekly 24-hour infusions, listed as Levosimendan
# [5] = weekly 24-hour infusions, compared with placebo
smiles,measurement,setting,value
"C[C@@H]1CC(=O)NN=C1c1ccc(NN=C(C#N)C#N)cc1 [levosimendan, Levosimendan]",Cardiac Index (CI),PH-HFpEF patients [1]; [3],unchanged at week 6
same,pulmonary vascular resistance (PVR),PH-HFpEF patients [1]; [3],unchanged at week 6
same,pulmonary vascular resistance (PVR),"PH-HFpEF patients [1]; chronic (weekly for 5 weeks) administration, week 6, listed as Levosimendan",did not decrease
same,safety and tolerability,PH-HFpEF patients [1]; weekly 24-hour dosing,safe and well tolerated
same,mean pulmonary arterial pressure (mPAP),PH-HFpEF patients [1]; weekly 24-hour infusions,significantly greater reduction; also recorded: decrease
same,right atrial pressure (RAP),PH-HFpEF patients [1]; weekly 24-hour infusions,decrease; also recorded: significantly greater reduction
same,six-minute walk test distance,PH-HFpEF patients [1]; weekly 24-hour infusions,significantly increased; also recorded: increase; also recorded: statistically significant improvement
same,mean pulmonary arterial pressure (mPAP),PH-HFpEF patients [1]; [4],reduces
same,right atrial pressure (RAP),PH-HFpEF patients [1]; [4],improves
same,six-minute walk test distance,PH-HFpEF patients [1]; [4],improves
same,pulmonary capillary wedge pressure (PCWP),PH-HFpEF patients [1]; weekly 24-hour infusions,significant vs placebo; also recorded: greater decrease
same,pulmonary capillary wedge pressure (PCWP),PH-HFpEF patients [1]; [4],improves
same,cardiac output,PH-HFpEF patients [1]; [5],significantly greater increase
same,proportion of subjects with an improved sense of well-being,PH-HFpEF patients [1]; [5],significantly higher proportion
same,"increase of six-minute walk distance, average",PH-HFpEF patients [2]; n=8,30 meters
same,patients with increased overall sense of well-being (five-point Likert Scale),PH-HFpEF patients [2]; n=8,7 out of 8
same,"six-minute walk distance after levosimendan, average","PH-HFpEF patients [2]; n=8, baseline 292",322 meters
same,improvement on the five-point Likert scale,PH-HFpEF patients [2]; patients who improved,1-2 points

# Reference: patent publication US11701355B2, “Levosimendan for treating pulmonary hypertension with heart failure with preserved ejection fraction (PH-HFpEF)” (Tenax Therapeutics, Inc., priority 2019, dated 2023)
